# Reference: ChEMBL document CHEMBL1143841, “Improved assessment of plasmodium vivax response to antimalarial drugs by a colorimetric double-site plasmodium lactate dehydrogenase antigen capture enzyme-linked immunosorbent assay” (Antimicrob Agents Chemother, 2007)
# Experiments:
# Format in all cases: functional, organism-based
# Plasmodium vivax [1] = test: Growth inhibition of Plasmodium vivax isolate 2 assessed as parasite LDH synthesis after 48 hrs by double-site Plasmodium LDH antigen capture enzyme-linked immunosorbent assay
# Plasmodium vivax [2] = test: Growth inhibition of Plasmodium vivax isolate 4 assessed as parasite LDH synthesis after 48 hrs by double-site Plasmodium LDH antigen capture enzyme-linked immunosorbent assay
# Plasmodium vivax [3] = test: Growth inhibition of Plasmodium vivax isolate 3 assessed as parasite LDH synthesis after 48 hrs by double-site Plasmodium LDH antigen capture enzyme-linked immunosorbent assay
# Plasmodium vivax [4] = test: Growth inhibition of Plasmodium vivax isolate 1 assessed as parasite LDH synthesis after 48 hrs by double-site Plasmodium LDH antigen capture enzyme-linked immunosorbent assay
compound,measurement,setting,value
CCN(CC)CCCC(C)Nc1ccnc2cc(Cl)ccc12 (centres undefined) [CHLOROQUINE],IC50,Plasmodium vivax [1],11.9 nM
same,IC50,Plasmodium vivax [2],180 nM
same,IC50,Plasmodium vivax [3],89.9 nM
same,IC50,Plasmodium vivax [4],5.5 nM
